US20250099033A1, “HIGH THROUGHPUT SCREENING METHOD FOR THE IDENTIFICATION OF PS[…]” (FRIEDRICH MIESCHER INSTITUTE FOR BIOMEDICAL RESEARCH, priority 2022, published 2025)
Entries after “also recorded” stand apart in the source; their conditions may differ.

System: Tlx3 positive layer 5 IT neurons
Test: Widefield calcium imaging of dorsal cortex in Tlx3-Cre x Ai148 mice (GCaMP6 in layer 5 IT neurons), before and after drug injection
Format: in vivo
Details: for Pearson's correlation of activity between cortical regions (all region pairs): single injection, after vs naïve; for long-range activity correlations (drug induced difference, normalized to naïve): region pairs above 0.9 of the bregma-lambda distance
Description: All animal procedures were approved by and carried out in accordance with guidelines of the Veterinary Department of the Canton Basel-Stadt, Switzerland. The mice used in this study were kept on a C57BL/6 background and were of the following genotype: 6 C57/Bl6 (Charles River Laboratories), 4 Emx1-Cre mice (Gorski et al., 2002), 4 Cux2-CreERT2 (Franco et al., 2012), 7 Scnn1a-Cre (Madisen et al., 2010), 15 Tlx3-Cre(PL56) (Gerfen et al., 2013), 3 Ntsr1-Cre (Gong et al., 2007), 2 PV-Cre (Hippenmeyer et al., 2005), 6 VIP-Cre (Taniguchi et al., 2011), 5 Sst-Cre (Taniguchi et al., 2011) were used for widefield calcium imaging. Ai148 ((Daigle et al., 2018), Jackson Laboratories, stock #030328) mice were used as breeders to drive GCaMP6f in Cre positive neurons. 7 C57BL/6 were used for experiments controlling for hemodynamic responses. To induce expression of Cre in the Cux2-CreERT2 line, mice were kept for at least 1 week on Tamoxifen containing food (Envigo, 400 mg Tamoxifen per kg of food) as their only food source. Mice were group housed in a vivarium (light/dark cycle: 12/12 hours). Experimental mice used were of both sexes.
For all surgical procedures, mice were anesthetized using a mixture of Fentanyl (0.05 mg/kg; Actavis), Midazolam (5.0 mg/kg; Dormicum, Roche) and Medetomidine (0.5 mg/kg; Domitor, Orion). In a subset of mice (6 C57/Bl6, 4 Emx1-Cre, 4 Sst-Cre mice) we injected an AAV coated with the PHP.eb capsid (Chan et al., 2017) retroorbitally ([…] each eye of at least 10^13 GC/ml) to drive expression pan-neuronally or cell type specificly of GCaMP6 under either the Ef1α or hSyn promoter. For hemodynamic response control experiments, the inventors used an AAV PHP.eb Ef1α-GFP to pan-neuronally transfect GFP. To improve optical access to the cortex, they implanted crystal skull cranial windows (Kim et al., 2016). Prior to removing the skull plate overlying dorsal cortex, they zeroed bregma with a digital readout attached to the stereotax for later use as a landmark. Superglue (Pattex) was used to close the craniotomy. […] A custom-machined titanium head bar was attached to the skull using dental cement (Paladur, Heraeus). An epifluorescence overview image was taken to mark reference points on the dorsal cortical surface. Anesthesia was antagonized by an intraperitoneal injection of a mixture of Flumazenil (0.5 mg/kg; Anexate, Roche) and Atipamezole (2.5 mg/kg; Antisedan, Orion Pharma), analgesia was achieved by injecting Buprenorphine (0.1 mg/kg; Reckitt Benckiser Healthcare (UK) Ltd.) and Metacam (5 mg/kg; Boehringer Ingelheim), and mice were subsequently returned to their home cage. Imaging commenced not before 1 week after headbar implantation and not before at least 3 weeks had passed in the cases in which AAVs had been used to transfect neurons. Clozapine (Sigma), Aripiprazole (Otsuka Pharmaceutical), Haloperidol (Janssen) and Amphetamine (Hänseler) were intraperitoneally injected at […] body weight, respectively.
For all experiments we used a virtual reality setup as previously described (Leinweber et al., 2014). Mice were head-fixed and free to run on a spherical, air supported Styrofoam ball. Rotation of the ball was coupled to movement in a virtual reality environment. A virtual corridor was projected (Samsung SP-F10M) onto a toroidal screen positioned in front of the mice covering approximately 240 degrees horizontally and 100 degrees vertically of the field of view. […]

SMILES | Pearson's correlation of activity between cortical regions (all region pairs) | long-range activity correlations (drug induced difference, normalized to naïve) | short-range activity correlations (drug induced difference, normalized to naïve) (region pairs below 0.9 of the bregma-lambda distance)
CC(N)Cc1ccccc1 (stereo not drawn) [Amphetamine] | did not affect activity correlations; also recorded: absent |  | 
O=C1CCc2ccc(OCCCCN3CCN(c4cccc(Cl)c4Cl)CC3)cc2N1 [Aripiprazole] | mimicked the decorrelation of dorsal cortex activity observed with Clozapine; also recorded: decorrelation of the activity patterns of Tlx3 positive layer 5 IT neurons was preserved | significantly reduced | significantly reduced
O=C(CCCN1CCC(O)(c2ccc(Cl)cc2)CC1)c1ccc(F)cc1 [Haloperidol] | mimicked the decorrelation of dorsal cortex activity observed with Clozapine; also recorded: decorrelation of the activity patterns of Tlx3 positive layer 5 IT neurons was preserved | reduced long-range activity correlations | 
